Ten molecules from patent publication US20240383900A1, “SUBSTITUTED PYRAZOLO [1,5-A]PYRIMIDINE-7-AMINE COMPOUNDS AS CDK INHIBITORS AND THEIR THERAPEUTIC USE” (Carrick Therapeutics Limited, priority 2021, published 2024) can be followed below.

Usually IC50 stands for the concentration that inhibits the measured activity by half.

Experiment [1] relates to A673 cells. As to the kind of experiment: Cytotoxicity in A673 cells (Cell Titer Glo viability). Format: cell-based. Conditions: for Ratio of Biochemical Potency:Cellular Potency: CDK12 IC50 / A673 IC50; for IC50: Homo sapiens. On the procedure: Cells were plated in 96-well plates at a density of […] viable cells per well in 200 μL fully supplemented growth medium (DMEM+10% heat inactivated foetal bovine serum) and incubated for 24 hours in standard tissue culture conditions. Compounds, including MLN4924, were solubilised in DMSO and then diluted in fully supplemented growth medium at 2× their final assay concentration such that the final DMSO concentration was 0.1%. Growth medium in the assay plates was replaced with 50 μL of growth medium containing 2×MLN4924 (final assay concentration: 30 nM, where tested) or vehicle only and 50 μL of growth medium containing a 2× compound concentration series or vehicle only such that each compound was at 1× final assay concentration in 100 μL.
Cells were then incubated for 72 hours in standard tissue culture conditions before viability was assessed using 50 μL Cell Titer Glo reagent (Promega) per well and luminescence measured on an EnVision plate reader. Data were normalised to vehicle control (100%) and cells treated with 0.1% Triton x-100 for 1 hour before viability measurement (0%; full cell kill). […] Viability curves generated in the presence of MLN4924 were normalised and fixed to controls treated with MLN4924.

The target in experiment [2] is Human CDK12 wt/CycK (Homo sapiens (Human), UniProt Q9NYV4). As to the kind of experiment: Radiometric protein kinase assay (33PanQinase Activity Assay), CDK12. Format: biochemical. The following applies: for CDK7/CDK12: ratio of CDK7 IC50 to CDK12 IC50, greater than 1 indicates selectivity for CDK12. As to the method:
(§1) A radiometric protein kinase assay (^33PanQinase® Activity Assay) was used for measuring the kinase activity of the two protein kinases (CDK12/CDK7). All kinase assays were performed in 96-well FlashPlates™ from PerkinElmer (Boston, MA, USA) in a 50 μL reaction volume.
(§2) The reaction cocktail was pipetted in four steps in the following order: • 20 μL of assay buffer (standard buffer) • 5 μL of ATP solution (in H2O) • 5 μL of test compound (in 10% DMSO) • 10 μL of substrate/10 μL of enzyme solution (premixed)
(§3) The reaction mixture was incubated at 30° C. for 60 min and then stopped by the addition of 2% (v/v) H3PO4. Plates were aspirated and washed two times with 200 μL 0.9% (w/v) NaCl. Incorporation of ^33Pi was determined with a microplate scintillation count (Microbeta, Wallac).
The fitting method used was a least-squares fit.

The target in experiment [3] is Human CDK7/CycH/MAT1 (Homo sapiens (Human), UniProt P50613). The experiment is described as follows: Radiometric protein kinase assay (33PanQinase Activity Assay), CDK7. Format: biochemical. The following applies: ATP 3 μM. On the procedure:
Additionally for the CDK7 assay: • Human CDK7/CycH/MAT1 (ProQinase, 0366-0360-4—Lot 2). • RBER-CHKtide (ProQinase, 0581-0000-5—Lot 106).
as §1, §2
For the CDK7 assay, a reaction mixture (50 μL) containing the following components was prepared: • 70 mM HEPES-NaOH (pH 7.5); • sodium orthovanadate (3 μM); • PEG-20000 (50 μg/mL); • DTT (1.2 mM); • MgCl2 (3 mM); • MnCl2 (3 mM); • purified human CDK7/CycH/MAT1 (3.3 nM—Lot 02); • RBER-CHKtide substrate (40 μg/mL—Lot 106); • ATP (3 μM); • [γ-33P]-ATP (approx. 8×10^5 cpm per well); and • test compound at the appropriate concentration such that the final concentration of DMSO was […].
as §3
The residual activities for each concentration and the compound IC50 values were calculated using Quattro Workflow V3.1.1 (Quattro Research GmbH, Munich, Germany). The fitting model for the IC50 determinations was “Sigmoidal response (variable slope)” with parameters “top” fixed at 100% and “bottom” at 0%. The fitting method used was a least-squares fit.

[4] abbreviates: A673, read-out: Cellular Potency IC50 (nM) (in A673 cells).
The mark [5] stands for this setting: A673 cells, 72 hours, read-out: A673 IC50.
Setting [6] is: ATP 0.3 μM, read-out: CDK12 IC50.
Where [7] appears, read: read-out: CKD12 Biochemical Potency IC50.

Structures are written as SMILES. Like-named read-outs stand apart in the source and are kept apart here.

Chain of Human CDK12 wt/CycK (Q9NYV4 whole entry): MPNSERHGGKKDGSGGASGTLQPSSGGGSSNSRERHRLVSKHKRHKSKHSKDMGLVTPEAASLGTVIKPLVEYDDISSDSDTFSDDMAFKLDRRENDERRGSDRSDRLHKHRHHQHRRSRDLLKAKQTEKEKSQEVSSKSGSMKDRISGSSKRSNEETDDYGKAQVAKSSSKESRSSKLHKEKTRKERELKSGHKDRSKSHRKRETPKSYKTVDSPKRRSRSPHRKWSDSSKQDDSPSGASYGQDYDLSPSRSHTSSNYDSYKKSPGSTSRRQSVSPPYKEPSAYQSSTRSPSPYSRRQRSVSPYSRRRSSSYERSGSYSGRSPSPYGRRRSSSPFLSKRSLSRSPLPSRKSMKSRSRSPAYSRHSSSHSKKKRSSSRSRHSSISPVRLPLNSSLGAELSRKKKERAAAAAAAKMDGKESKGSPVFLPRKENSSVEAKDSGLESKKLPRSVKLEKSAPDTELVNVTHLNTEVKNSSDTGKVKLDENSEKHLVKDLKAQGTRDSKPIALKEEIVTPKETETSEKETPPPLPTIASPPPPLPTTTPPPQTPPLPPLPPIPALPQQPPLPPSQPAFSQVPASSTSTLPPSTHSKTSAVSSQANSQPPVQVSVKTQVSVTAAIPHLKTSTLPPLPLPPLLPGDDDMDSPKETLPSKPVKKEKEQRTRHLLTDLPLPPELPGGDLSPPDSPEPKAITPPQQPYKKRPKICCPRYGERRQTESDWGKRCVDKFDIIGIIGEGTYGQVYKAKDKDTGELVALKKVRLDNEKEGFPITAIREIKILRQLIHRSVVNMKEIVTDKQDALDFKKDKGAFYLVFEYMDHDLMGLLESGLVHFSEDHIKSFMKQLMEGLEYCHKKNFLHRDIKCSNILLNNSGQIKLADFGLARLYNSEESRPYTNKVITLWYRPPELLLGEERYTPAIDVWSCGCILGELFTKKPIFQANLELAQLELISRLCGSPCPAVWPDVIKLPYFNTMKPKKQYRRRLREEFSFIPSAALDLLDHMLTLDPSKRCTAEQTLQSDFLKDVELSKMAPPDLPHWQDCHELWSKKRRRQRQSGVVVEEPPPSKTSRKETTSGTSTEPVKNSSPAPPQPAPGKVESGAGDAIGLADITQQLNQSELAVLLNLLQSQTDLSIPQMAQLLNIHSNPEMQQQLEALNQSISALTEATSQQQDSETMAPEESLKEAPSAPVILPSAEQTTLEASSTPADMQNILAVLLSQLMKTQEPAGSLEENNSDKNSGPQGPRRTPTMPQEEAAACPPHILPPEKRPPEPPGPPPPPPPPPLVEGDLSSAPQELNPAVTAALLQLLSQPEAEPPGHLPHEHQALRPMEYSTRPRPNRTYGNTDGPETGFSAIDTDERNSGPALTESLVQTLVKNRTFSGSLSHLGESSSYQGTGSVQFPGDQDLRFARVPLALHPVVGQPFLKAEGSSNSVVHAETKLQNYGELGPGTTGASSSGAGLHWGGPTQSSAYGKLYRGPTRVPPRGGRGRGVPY
Chain of Human CDK12 wt/CycK (O75909 whole entry partner): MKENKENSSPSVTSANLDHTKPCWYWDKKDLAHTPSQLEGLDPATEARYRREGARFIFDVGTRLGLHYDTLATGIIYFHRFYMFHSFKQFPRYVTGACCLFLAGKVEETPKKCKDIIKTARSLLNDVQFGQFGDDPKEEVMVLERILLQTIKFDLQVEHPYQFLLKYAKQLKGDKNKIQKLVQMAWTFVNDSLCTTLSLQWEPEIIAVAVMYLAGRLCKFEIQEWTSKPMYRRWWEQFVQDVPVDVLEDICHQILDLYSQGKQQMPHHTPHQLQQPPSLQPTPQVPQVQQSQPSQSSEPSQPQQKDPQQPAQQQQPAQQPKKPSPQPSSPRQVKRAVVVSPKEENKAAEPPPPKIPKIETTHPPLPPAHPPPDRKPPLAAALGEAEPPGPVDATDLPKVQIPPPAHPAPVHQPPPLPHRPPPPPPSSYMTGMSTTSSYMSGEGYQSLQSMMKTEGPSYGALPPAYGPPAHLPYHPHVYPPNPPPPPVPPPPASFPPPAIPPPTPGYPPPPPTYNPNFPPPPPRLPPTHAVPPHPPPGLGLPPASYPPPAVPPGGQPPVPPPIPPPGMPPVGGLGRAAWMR
Chain of Human CDK7/CycH/MAT1 (P50613 whole entry): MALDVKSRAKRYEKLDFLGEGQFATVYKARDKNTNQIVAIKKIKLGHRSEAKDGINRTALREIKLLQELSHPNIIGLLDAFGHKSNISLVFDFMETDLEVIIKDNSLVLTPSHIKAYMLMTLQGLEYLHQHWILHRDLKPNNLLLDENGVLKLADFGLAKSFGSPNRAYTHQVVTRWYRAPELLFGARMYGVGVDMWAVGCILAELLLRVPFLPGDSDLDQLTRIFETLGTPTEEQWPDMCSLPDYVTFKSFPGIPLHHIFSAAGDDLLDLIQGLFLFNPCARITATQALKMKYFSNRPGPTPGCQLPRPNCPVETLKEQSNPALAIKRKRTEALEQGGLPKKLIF
Chain of Human CDK7/CycH/MAT1 (P51946 whole entry partner): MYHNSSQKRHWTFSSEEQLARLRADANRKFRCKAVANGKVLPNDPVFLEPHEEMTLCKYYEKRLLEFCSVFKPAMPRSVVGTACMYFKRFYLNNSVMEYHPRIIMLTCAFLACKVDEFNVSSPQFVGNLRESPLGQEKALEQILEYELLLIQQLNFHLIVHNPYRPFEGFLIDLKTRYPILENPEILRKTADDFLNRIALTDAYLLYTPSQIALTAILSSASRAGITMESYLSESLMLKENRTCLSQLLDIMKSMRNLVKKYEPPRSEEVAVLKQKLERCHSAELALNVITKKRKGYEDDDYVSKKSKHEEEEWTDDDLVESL
Chain of Human CDK7/CycH/MAT1 (P51948 whole entry partner): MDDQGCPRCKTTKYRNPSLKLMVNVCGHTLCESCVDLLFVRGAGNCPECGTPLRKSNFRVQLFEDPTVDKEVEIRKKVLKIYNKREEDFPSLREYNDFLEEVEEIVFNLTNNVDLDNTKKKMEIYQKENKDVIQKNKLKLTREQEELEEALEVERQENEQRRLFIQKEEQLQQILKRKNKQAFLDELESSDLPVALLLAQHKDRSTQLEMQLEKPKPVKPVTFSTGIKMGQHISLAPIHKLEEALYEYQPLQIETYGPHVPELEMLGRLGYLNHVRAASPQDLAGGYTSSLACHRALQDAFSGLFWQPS

Turning to `CC(C)c1cnn2c(NCc3ccc(-c4ccccn4)cc3)cc(NC[C@H]3CCNC[C@@H]3O)nc12` [PPA-001, (3R,4R)-4-(((3-isopropyl-7-((4-(pyridin-2-yl)benzyl)amino)pyrazolo[1,5-a]pyrimidin-5-yl)amino)methyl)piperidin-3-ol], the “Ratio of Biochemical Potency:Cellular Potency” value (shortened to “Ratio”) in experiment [1] amounted to 21.79. Besides, the IC50 in experiment [1] (setting [4]) is 2.8 nM; in experiment [1] (setting [5]), 2.8 nM; in experiment [2] (setting [6]) it was 61 nM; in experiment [2] (setting [7]) it was 61 nM; in experiment [3], 162 nM. Besides, the CDK7/CDK12 in experiment [2] turned out to be 2.7.
`CC(=O)N1CCC(CNc2cc(NCc3ccc(-c4ccccn4)cc3)n3ncc(C4CC4)c3n2)CC1` [PPA-046]: the “Ratio” value in experiment [1] turned out to be 12.38. Also, the half-inhibitory concentration (IC50) is 305 nM in experiment [1] (setting [4]); 305 nM in experiment [1] (setting [5]); 3780 nM in experiment [2] (setting [6]); 3780 nM in experiment [2] (setting [7]); more than 30000 nM in experiment [3]. The CDK7/CDK12 in experiment [2] is recorded as more than 8.
In the case of `CC(C)c1cnn2c(NCc3ccc(-c4ncccn4)cc3)cc(NC[C@H]3CCNC[C@@H]3O)nc12` [PPA-007], the “Ratio” value in experiment [1] amounted to 30.00. The IC50 in experiment [1] (setting [4]) worked out at 1.7 nM; in experiment [1] (setting [5]) it was 1.7 nM; in experiment [2] (setting [6]), 51 nM; in experiment [2] (setting [7]), 51 nM; in experiment [3], 112 nM. Moreover, the CDK7/CDK12 in experiment [2] was 2.2.
With `O[C@H]1CNCC[C@@H]1CNc1cc(NCc2ccc(-c3ccc(F)cn3)cc2)n2ncc(C3CC3)c2n1` [PPA-019], in experiment [1], the “Ratio” value came out at 1.34. Also, the 50% inhibitory concentration (IC50) in experiment [1] (setting [4]) was 52.4 nM; in experiment [1] (setting [5]), 52.4 nM; in experiment [2] (setting [6]) it was 70 nM; in experiment [2] (setting [7]) it was 70 nM; in experiment [3], 224 nM. The CDK7/CDK12 in experiment [2] is given as 3.2.
For `OC1CCN(c2cc(NCc3ccc(-c4ccccn4)cc3)n3ncc(C4CC4)c3n2)CC1` [PPA-050], in experiment [1], the “Ratio” value was 9.44. Further, the IC50 in experiment [1] (setting [4]) is 44.8 nM; in experiment [1] (setting [5]) it was 44.8 nM; in experiment [2] (setting [6]), 423 nM; in experiment [2] (setting [7]), 423 nM; in experiment [3] it was 10500 nM. In experiment [2], the CDK7/CDK12 stood at 24.8.
`Cc1cc(CNc2cc(NC[C@H]3CCNC[C@@H]3O)nc3c(C(C)C)cnn23)ccc1-c1ccccn1` [PPA-011]: the “Ratio” value in experiment [1] was 2.32. Further, the IC50 is 69 nM in experiment [1] (setting [4]); 69 nM in experiment [1] (setting [5]); 160 nM in experiment [2] (setting [6]); 160 nM in experiment [2] (setting [7]); 153 nM in experiment [3]. Further, in experiment [2], the CDK7/CDK12 is reported as 1.0.
On to `O[C@H]1CNCC[C@@H]1CNc1cc(NCc2ccc(-c3nccs3)cc2F)n2ncc(C3CC3)c2n1` [PPA-054], for which, in experiment [1], the “Ratio” value worked out at 18.15. Further, the IC50 in experiment [1] (setting [4]) came to 2.7 nM; in experiment [1] (setting [5]) it was 2.7 nM; in experiment [2] (setting [6]) it was 49 nM; in experiment [2] (setting [7]), 49 nM; in experiment [3], 589 nM. Also, in experiment [2], the CDK7/CDK12 is 12.0.
Turning to `c1ccc(-c2ccc(CNc3cc(-c4ccn[nH]4)nc4c(C5CC5)cnn34)cc2)nc1` [PPA-079], the “Ratio” value in experiment [1] was less than 11.9. The IC50 in experiment [1] (setting [4]) is more than 100 nM; in experiment [1] (setting [5]) it was more than 100 nM; in experiment [2] (setting [6]), 1190 nM; in experiment [2] (setting [7]), 1190 nM; in experiment [3], more than 30000 nM.
Regarding `O[C@H]1CNCC[C@@H]1CNc1cc(NCc2ccc(-c3cscn3)cc2)n2ncc(C3CC3)c2n1` [PPA-035], the “Ratio” value in experiment [1] is given as 28.89. Also, the IC50 in experiment [1] (setting [4]) is 1.8 nM; in experiment [1] (setting [5]), 1.8 nM; in experiment [2] (setting [6]) it was 52 nM; in experiment [2] (setting [7]), 52 nM; in experiment [3], 113 nM. For the same molecule, in experiment [2], the CDK7/CDK12 was 2.2.
`O[C@H]1CNCC[C@@H]1CNc1cc(NCc2ccc(-c3ccccn3)cc2F)n2ncc(Cl)c2n1` [PPA-074]: the “Ratio” value in experiment [1] stood at 32.86. Moreover, the IC50 was 0.7 nM in experiment [1] (setting [4]); 0.7 nM in experiment [1] (setting [5]); 23 nM in experiment [2] (setting [6]); 23 nM in experiment [2] (setting [7]); 350 nM in experiment [3]. For the same molecule, the CDK7/CDK12 in experiment [2] was 15.2.
